From ChEMBL document CHEMBL2346651, “Structure-activity relationship study of tachykinin peptides for the development of novel neurokinin-3 receptor selective agonists” (Bioorg Med Chem, 2013)
Residues, ends and D or L forms follow the SMILES beside them.

Assays:
[1] = target: T1, Substance-K receptor (Homo sapiens) (UniProt P21452); experiment: Displacement of [125I]-NKA from NK2R (unknown origin) transfected in CHO cells at 10 uM by gamma counting analysis; type: cell-based
T1 sequence (whole entry): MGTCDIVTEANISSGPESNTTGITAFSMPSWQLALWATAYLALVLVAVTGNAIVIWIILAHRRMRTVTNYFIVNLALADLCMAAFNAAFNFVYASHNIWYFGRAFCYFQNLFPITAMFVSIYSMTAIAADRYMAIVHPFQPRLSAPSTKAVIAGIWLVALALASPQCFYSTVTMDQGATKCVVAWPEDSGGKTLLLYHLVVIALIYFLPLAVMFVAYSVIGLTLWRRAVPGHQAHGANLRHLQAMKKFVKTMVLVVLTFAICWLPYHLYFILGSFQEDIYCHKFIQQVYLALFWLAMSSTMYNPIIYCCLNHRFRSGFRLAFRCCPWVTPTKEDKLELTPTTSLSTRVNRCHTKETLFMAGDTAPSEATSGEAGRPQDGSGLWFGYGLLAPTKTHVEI

Neuromedin-K receptor [2] = target: T2, Neuromedin-K receptor (Homo sapiens, UniProt P29371); experiment: Displacement of ([125I]-His3, MePhe7)-NKB from NK3R (unknown origin) transfected in CHO cells by gamma counting analysis; type: cell-based
T2 sequence (P29371 whole entry): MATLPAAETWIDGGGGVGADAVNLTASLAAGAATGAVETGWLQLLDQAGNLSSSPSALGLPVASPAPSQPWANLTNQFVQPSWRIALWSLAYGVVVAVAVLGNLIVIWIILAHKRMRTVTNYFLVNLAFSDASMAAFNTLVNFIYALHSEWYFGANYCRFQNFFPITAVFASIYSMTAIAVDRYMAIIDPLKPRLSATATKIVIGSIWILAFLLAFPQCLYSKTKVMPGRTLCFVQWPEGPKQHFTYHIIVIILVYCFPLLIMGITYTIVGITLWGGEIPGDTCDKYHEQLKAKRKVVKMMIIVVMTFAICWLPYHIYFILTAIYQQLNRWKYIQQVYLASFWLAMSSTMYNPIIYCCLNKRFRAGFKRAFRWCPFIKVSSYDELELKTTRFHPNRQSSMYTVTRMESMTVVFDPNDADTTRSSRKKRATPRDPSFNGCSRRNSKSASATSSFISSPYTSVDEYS

[3] = target: Substance-P receptor (Homo sapiens) (UniProt P25103); experiment: Displacement of [125I]-BH-SP from NK1R (unknown origin) transfected in CHO cells at 10 uM by gamma counting analysis; type: cell-based
Sequence of Substance-P receptor (Homo sapiens) (P25103 whole entry): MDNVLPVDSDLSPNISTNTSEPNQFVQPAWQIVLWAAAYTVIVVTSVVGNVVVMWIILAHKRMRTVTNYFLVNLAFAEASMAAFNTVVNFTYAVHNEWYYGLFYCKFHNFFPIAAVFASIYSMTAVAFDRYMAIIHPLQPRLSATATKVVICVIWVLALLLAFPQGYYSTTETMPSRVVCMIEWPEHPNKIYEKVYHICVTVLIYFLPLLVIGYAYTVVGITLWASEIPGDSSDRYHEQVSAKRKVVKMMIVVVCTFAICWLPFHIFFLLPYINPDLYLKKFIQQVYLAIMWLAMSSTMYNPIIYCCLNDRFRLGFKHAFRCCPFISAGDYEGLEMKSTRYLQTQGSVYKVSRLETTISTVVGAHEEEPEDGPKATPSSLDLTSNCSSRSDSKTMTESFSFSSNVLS

Neuromedin-K receptor [4] = target: T2, Neuromedin-K receptor; experiment: Agonist activity at NK3R (unknown origin) transfected in CHO cells assessed as calcium influx […]; type: functional, cell-based

Compound	inhibition [1] [%]	IC50 (Neuromedin-K receptor [2]) [nM]	inhibition [3] [%]	EC50 (Neuromedin-K receptor [4]) [nM]
CSCC[C@H](NC(=O)[C@H](CC(C)C)NC(=O)CNC(=O)[C@H](Cc1ccccc1)N(C)C(=O)[C@H](Cc1ccccc1)NC(=O)CNC(=O)[C@H](CC(=O)O)NC(=O)[C@H](Cc1cnc[nH]1)NC(=O)[C@H](CCSC)NC(=O)[C@@H](N)CC(=O)O)C(N)=O (HELM PEPTIDE1{D.M.H.D.G.F.[meF].G.L.M.[am]}$$$$V2.0)	22	13	< 10	0.036
CSCC[C@H](NC(=O)[C@H](CC(C)C)NC(=O)CNC(=O)[C@H](Cc1ccccc1)N(C)C(=O)[C@H](Cc1ccccc1)NC(=O)[C@@H](NC(=O)[C@H](CC(=O)O)NC(=O)[C@H](Cc1cnc[nH]1)NC(=O)[C@H](CCSC)NC(=O)[C@@H](N)CC(=O)O)C(C)C)C(N)=O (HELM PEPTIDE1{D.M.H.D.V.F.[meF].G.L.M.[am]}$$$$V2.0)	29	1.5	< 10	0.065
CC[C@H](C)[C@H](NC(=O)[C@H](Cc1ccccc1)NC(=O)[C@H](CC(=O)O)NC(=O)[C@H](CC(=O)O)NC(=O)[C@H](CCCCN)NC(=O)[C@H](CO)NC(=O)[C@@H]1CCCN1C(=O)[C@@H]1CCC(=O)N1)C(=O)NCC(=O)N[C@@H](CC(C)C)C(=O)N[C@@H](CCSC)C(N)=O (HELM PEPTIDE1{[Glp].P.S.K.D.D.F.I.G.L.M.[am]}$$$$V2.0)	56	35	91	0.0054
CSCC[C@H](NC(=O)[C@H](CC(C)C)NC(=O)CNC(=O)[C@H](Cc1ccccc1)N(C)C(=O)[C@H](Cc1ccccc1)NC(=O)[C@H](CCSC)NC(=O)[C@H](CC(=O)O)NC(=O)[C@H](Cc1cnc[nH]1)NC(=O)[C@H](CCSC)NC(=O)[C@@H](N)CC(=O)O)C(N)=O (HELM PEPTIDE1{D.M.H.D.M.F.[meF].G.L.M.[am]}$$$$V2.0)	41	1.7	< 10	0.032
H-DTGDKFYGLM-NH2 [SIALOKININ II]	98	1930	99	10.9
CSCC[C@H](NC(=O)[C@H](CC(C)C)NC(=O)CNC(=O)[C@H](Cc1ccccc1)N(C)C(=O)[C@H](Cc1ccccc1)NC(=O)[C@H](Cc1c[nH]c2ccccc12)NC(=O)[C@H](CC(=O)O)NC(=O)[C@H](Cc1cnc[nH]1)NC(=O)[C@H](CCSC)NC(=O)[C@@H](N)CC(=O)O)C(N)=O (HELM PEPTIDE1{D.M.H.D.W.F.[meF].G.L.M.[am]}$$$$V2.0)	79	1.8	< 10	0.28
CSCC[C@H](NC(=O)[C@H](CC(C)C)NC(=O)CNC(=O)[C@@H](NC(=O)[C@H](Cc1ccccc1)NC(=O)[C@H](CCC(=O)O)NC(=O)[C@H](CC(=O)O)NC(=O)[C@@H]1CCCN1C(=O)[C@H](CC(N)=O)NC(=O)[C@@H]1CCCN1C(=O)[C@@H]1CCC(=O)N1)C(C)C)C(N)=O (HELM PEPTIDE1{[Glp].P.N.P.D.E.F.V.G.L.M.[am]}$$$$V2.0)	92	53	94	0.079
H-DVPKSDDFVGLM-NH2	74	89	53	0.47
CSCC[C@H](NC(=O)[C@H](CC(C)C)NC(=O)CNC(=O)[C@H](Cc1ccccc1)N(C)C(=O)[C@H](Cc1ccccc1)NC(=O)[C@@H](NC(=O)[C@H](CC(=O)O)NC(=O)[C@H](Cc1cnc[nH]1)NC(=O)[C@H](CCSC)NC(=O)[C@@H](N)CC(=O)O)[C@@H](C)O)C(N)=O (HELM PEPTIDE1{D.M.H.D.T.F.[meF].G.L.M.[am]}$$$$V2.0)	19	4.3	< 10	0.046
CSCC[C@H](NC(=O)[C@H](CC(C)C)NC(=O)CNC(=O)[C@H](Cc1ccccc1)N(C)C(=O)[C@H](Cc1ccccc1)NC(=O)[C@H](CC(N)=O)NC(=O)[C@H](CC(=O)O)NC(=O)[C@H](Cc1cnc[nH]1)NC(=O)[C@H](CCSC)NC(=O)[C@@H](N)CC(=O)O)C(N)=O (HELM PEPTIDE1{D.M.H.D.N.F.[meF].G.L.M.[am]}$$$$V2.0)	10	18	< 10	0.036
CSCC[C@H](NC(=O)[C@H](CC(C)C)NC(=O)CNC(=O)[C@H](Cc1ccccc1)N(C)C(=O)[C@H](Cc1ccccc1)NC(=O)[C@H](CC(=O)O)NC(=O)[C@H](CC(=O)O)NC(=O)[C@@H]1CCCN1C(=O)[C@H](CC(N)=O)NC(=O)[C@@H]1CCCN1C(=O)[C@@H]1CCC(=O)N1)C(N)=O (HELM PEPTIDE1{[Glp].P.N.P.D.D.F.[meF].G.L.M.[am]}$$$$V2.0)	< 10	19	< 10	0.083
CSCC[C@H](NC(=O)[C@H](CC(C)C)NC(=O)CNC(=O)[C@H](Cc1ccccc1)N(C)C(=O)[C@H](Cc1ccccc1)NC(=O)[C@H](Cc1cnc[nH]1)NC(=O)[C@H](CC(=O)O)NC(=O)[C@H](Cc1cnc[nH]1)NC(=O)[C@H](CCSC)NC(=O)[C@@H](N)CC(=O)O)C(N)=O (HELM PEPTIDE1{D.M.H.D.H.F.[meF].G.L.M.[am]}$$$$V2.0)	47	5.9	< 10	0.017
CSCC[C@H](NC(=O)[C@H](CC(C)C)NC(=O)CNC(=O)[C@H](Cc1ccccc1)N(C)C(=O)[C@H](Cc1ccccc1)NC(=O)[C@H](CCCCN)NC(=O)[C@H](CC(=O)O)NC(=O)[C@H](Cc1cnc[nH]1)NC(=O)[C@H](CCSC)NC(=O)[C@@H](N)CC(=O)O)C(N)=O (HELM PEPTIDE1{D.M.H.D.K.F.[meF].G.L.M.[am]}$$$$V2.0)	35	11	40	0.026
CSCC[C@H](NC(=O)[C@H](CC(C)C)NC(=O)CNC(=O)[C@H](Cc1ccccc1)N(C)C(=O)[C@H](Cc1ccccc1)NC(=O)[C@H](CC(=O)O)NC(=O)[C@H](CC(=O)O)NC(=O)[C@H](CCCCN)NC(=O)[C@H](CO)NC(=O)[C@@H]1CCCN1C(=O)[C@@H]1CCC(=O)N1)C(N)=O (HELM PEPTIDE1{[Glp].P.S.K.D.D.F.[meF].G.L.M.[am]}$$$$V2.0)	< 10	5.5	< 10	0.078
CSCC[C@H](NC(=O)[C@H](CC(C)C)NC(=O)CNC(=O)[C@H](Cc1ccccc1)N(C)C(=O)[C@H](Cc1ccccc1)NC(=O)[C@H](CC(=O)O)NC(=O)[C@H](CC(=O)O)NC(=O)[C@H](Cc1cnc[nH]1)NC(=O)[C@H](CCSC)NC(=O)[C@@H](N)CC(=O)O)C(N)=O (HELM PEPTIDE1{D.M.H.D.D.F.[meF].G.L.M.[am]}$$$$V2.0)	< 10	38	< 10	0.04
CSCC[C@H](NC(=O)[C@H](CC(C)C)NC(=O)CNC(=O)[C@H](Cc1ccc(O)cc1)NC(=O)[C@H](Cc1ccccc1)NC(=O)[C@H](CCC(=O)O)NC(=O)[C@H](CC(=O)O)NC(=O)[C@@H]1CCCN1C(=O)[C@H](CC(N)=O)NC(=O)[C@@H]1CCCN1C(=O)[C@@H]1CCC(=O)N1)C(N)=O (HELM PEPTIDE1{[Glp].P.N.P.D.E.F.Y.G.L.M.[am]}$$$$V2.0)	< 10	710	98	1.38
